We go through six molecules from patent publication US20260200931A1, “PYRIDINE POLYCYCLIC COMPOUND INHIBITOR, PREPARATION METHOD THEREFOR AND USE THEREOF” (SHANGHAI HANSOH BIOMEDICAL CO., LTD, priority 2022, published 2026).

The structures appear in SMILES notation. Bounds are passed on as bounds.

The target of series [1] is T1, human CYP11B2 (Homo sapiens, UniProt P19099).
T1 construct: The main elements of an expression plasmid include ORF of human CYP11B1 or human CYP11B2; expressed in transfected cells
T1 sequence (P19099 25-503): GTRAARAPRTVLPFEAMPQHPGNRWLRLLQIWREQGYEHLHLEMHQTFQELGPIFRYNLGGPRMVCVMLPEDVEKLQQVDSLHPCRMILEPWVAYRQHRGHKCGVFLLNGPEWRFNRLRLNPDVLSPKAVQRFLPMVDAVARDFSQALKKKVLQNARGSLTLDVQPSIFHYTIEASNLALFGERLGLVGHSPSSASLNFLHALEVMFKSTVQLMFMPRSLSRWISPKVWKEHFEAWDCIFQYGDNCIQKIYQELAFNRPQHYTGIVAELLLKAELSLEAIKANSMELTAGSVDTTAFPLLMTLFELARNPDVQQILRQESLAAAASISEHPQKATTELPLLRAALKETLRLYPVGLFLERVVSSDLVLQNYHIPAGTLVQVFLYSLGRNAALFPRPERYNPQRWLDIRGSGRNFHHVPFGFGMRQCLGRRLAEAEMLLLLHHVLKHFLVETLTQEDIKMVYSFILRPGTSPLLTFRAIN
Kind of series: G-402 cell enzyme experiment, human CYP11B2 (aldosterone production, HTRF). The class given is cell-based. The following applies: G-402 cells stably expressing human CYP11B2; 1 μM 11-deoxycorticosterone; 16 h; aldosterone by HTRF. An excerpt:
(§1) G-402 cell line was used as host cells to express (by transient or stable transfection) an enzyme of the human CYP11 family. Specifically, G-402 cell lines stably expressing human CYP11B1 and human CYP11B2 were established respectively. […] Therefore, the G-402 cell line is very suitable as a host cell for the ectopic expression of an enzyme of the CYP11 family.
(§2) The G-402 cell line, originally derived from renal myoblastoma, can be obtained from ATCC (CRL-1440). The main elements of an expression plasmid include ORF of human CYP11B1 or human CYP11B2, a suitable promoter (CMV promoter), and a suitable resistance marker (neomycin). The expression plasmid was transfected into G-402 cells by standard technology, and a specific antibiotic was then given for screening. The activity of the enzyme expressed by the screened monoclonal cells was assessed by 11-deoxycorticosterone (substrate of CYP11B2) and 11-deoxycortisol (substrate of CYP11B1).
(§3) The G-402 cells expressing CYP11 plasmid, as established in the above solution, were cultured in McCoy's 5a Modified Medium (ATCC Catalog No. 30-2007) containing 10% FCS and 400 μg/ml G418 in an incubator at 37° C. and 5% CO2. A cell enzyme experiment was carried out using DMEM/F12 medium containing 2.5% charcoal-treated FBS and an appropriate concentration of a substrate (1 μM 11-deoxycorticosterone or 1 μM 11-deoxycortisol). In order to detect the activity of the enzyme in the cells, the cells were plated in a 96-well plate and incubated for 16 h. The supernatant was then transfered and analyzed for the concentration of the expected product (the product of CYP11B2: aldosterone; the product of CYP11B1: cortisol). The concentrations of these products were determined by an HTRF experiment of CisBio.
(§4) In the cell enzyme experiment, the inhibitory effect of the test compound on the generated product can reflect the inhibitory effect thereof on the enzyme. The dose-dependent inhibition of the enzyme activity by the compound was calculated by plotting the concentration of the test compound (x axis) versus the measured product level (y axis). Then, the original data was fitted to a 4-parameter sigmoidal function (Morgan-Mercer-Flodin, MMF model) by least square method: y=(AB+Cx^D)/(B+x^D) in which A is the maximum y value, B is the EC50 determined by XLFit, C is the minimum y value, and D is the slope value. The maximum value A corresponds to the amount of the product detected without an inhibitor, and C corresponds to the amount of the product detected in the G402 cells expressing an empty plasmid.
(§5) The EC50 value of the compound of the present patent was determined by the above G-402 experiment system. […]

Series [2] deals with T2, human CYP11B1 (Homo sapiens, UniProt P15538).
T2 construct: The main elements of an expression plasmid include ORF of human CYP11B1 or human CYP11B2; expressed in transfected cells
T2 sequence (P15538 25-503): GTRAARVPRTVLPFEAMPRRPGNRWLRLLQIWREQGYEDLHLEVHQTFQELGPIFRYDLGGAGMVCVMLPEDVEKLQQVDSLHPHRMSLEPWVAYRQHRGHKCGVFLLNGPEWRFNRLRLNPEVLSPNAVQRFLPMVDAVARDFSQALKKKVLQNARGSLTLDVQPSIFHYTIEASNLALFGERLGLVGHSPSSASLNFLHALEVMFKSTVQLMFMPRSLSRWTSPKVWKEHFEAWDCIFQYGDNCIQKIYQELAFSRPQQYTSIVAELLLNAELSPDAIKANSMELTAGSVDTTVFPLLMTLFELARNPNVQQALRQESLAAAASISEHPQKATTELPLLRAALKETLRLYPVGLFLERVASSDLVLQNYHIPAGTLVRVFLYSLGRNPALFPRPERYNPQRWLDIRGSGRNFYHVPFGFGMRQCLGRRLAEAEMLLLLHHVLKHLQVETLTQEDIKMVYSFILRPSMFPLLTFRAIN
Description: G-402 cell enzyme experiment, human CYP11B1 (cortisol production, HTRF); selectivity of CYP11B2 over CYP11B1. To be noted: G-402 cells expressing human CYP11B1 or CYP11B2; selectivity for CYP11B2 over CYP11B1. Type of series: cell-based.
From the text: as §1, §2, §3, §4, §5
(In general: TR-FRET usually uses a lanthanide donor and a delayed reading to cut background.)

Series [3] can be described thus: Pharmacokinetic assay in mice. The class given is in vivo. To be noted: mouse, male Balb/c mice, plasma, table does not print the route (objective: oral administration, PO 5 mg/kg). As to the method:
Balb/c mice were used as test animals to study the pharmacokinetic behavior of the compounds of the present disclosure in mice (plasma) after oral administration.
Compounds of the present disclosure, made in house.
3 Balb/c mice per group, male; from Shanghai Bk Lab Animal Co., Ltd., with animal production license number (SCXK (Shanghai) 2013-0006 N0.311620400001794).
0.5 g of sodium carboxymethyl cellulose (CMC-Na, viscosity: 800-1200 Cps) was weighed and dissolved in 99 mL of purified water, and 1 ml of Tween 80 was added. These materials were uniformly mixed to form a clear solution.
Examples 1 and 2 were weighed and dissolved in the solution, and the mixtures were shaken well and ultrasonicated for 15 min to obtain colorless clear solutions with a concentration of 0.5 mg/mL.
Examples 1 and 2 were weighed, and 5% of DMSO was added based on the total administration volume; the mixture was vortexed and ultrasonicated for 2 min to ensure complete dissolution; then, 10% Solutol HS15 was added, and the mixture was vortexed and ultrasonicated for 2 min to achieve complete dissolution; finally, 85% PBS was added, and the mixture was vortexed and ultrasonicated for 5 min; the resulting mixture was filtered through a […] filter membrane to obtain a colorless, transparent, and clear solution with a concentration of 0.2 mg/mL.
After overnight fasting, 3 male Balb/c mice per group were administered orally (PO) at a dose of 5 mg/kg with an administration volume of 10 mL/kg.
After overnight fasting, 3 male Balb/c mice per group were administered intravenously (IV) at a dose of 1 mg/kg with an administration volume of 5 mL/kg.
0.04 mL of blood was collected from the orbit of the experimental animals before administration and at 0.25 h, 0.5 h, 1.0 h, 2.0 h, 4.0 h, 6.0 h, 8.0 h, and 24.0 h after administration and placed in an EDTA-2K test tube, and the test tube was centrifuged at 8000 rpm for 6 min at 4° C. to separate the plasma, which was stored at −80° C.; and the animals were fed 4 h after administration.
The final determination results were obtained by using LCMS/MS method.

The subject of series [4] is aldosterone. Description: In vivo efficacy assay, ACTH challenge: plasma aldosterone. To be noted: for Aldosterone, 0: 0 hour after 5 μg/kg ACTH I.V. (given one hour after dosing); for Aldosterone, 0.5 h: 0.5 h after 5 μg/kg ACTH I.V. Also on record: species or system cynomolgus monkeys. As to the method: (§6) Male cynomolgus monkeys were gavaged (P.O.) with the compounds to be tested and divided into 0 mpk (vehicle group), 0.1 mpk, 0.3 mpk, 1 mpk, and 3 mpk dose groups. Each group was given 5 μg/kg ACTH intravenous injection (I.V.) after one hour. Blood samples were collected at −1 hour, 0 hour, 0.5 hours, 1.0 hour, 1.5 hours, 2 hours, and 3 hours after intravenous injection of ACTH. The volume was about 0.5 mL at each time point. The samples were centrifuged (3200 g, at 2-8° C. for 10 minutes) within one hour after collection. The contents of the plasma aldosterone, cortisol, corticosterone, 11-deoxycortisol, and 11-deoxycorticosterone at each time point were then analyzed by LC/MS-MS method.

The test system of series [5] is cortisol. Kind of series: In vivo efficacy assay, ACTH challenge: plasma cortisol. The arrangement: species or system cynomolgus monkeys. The following applies: for Cortisol, 0: 0 hour after 5 μg/kg ACTH I.V. (given one hour after dosing); for Cortisol, 1 h: 1 h after 5 μg/kg ACTH I.V. As to the method:
as §6

One may read the EC50 as the concentration giving half of the maximal effect. A high value points to lower potency in that assay. As usually defined, the AUC(0-inf) is the area under the concentration-time curve extrapolated to infinity. For orientation: AUC(0-t) means the area under the concentration-time curve up to a stated or last time point. Low readings indicate low exposure, high ones high exposure. Usually Cmax stands for the highest concentration seen after dosing. What is called Tmax is the time at which the peak concentration occurs. The term half-life denotes the time in which the quantity being followed falls by half. High values mean slow loss, low ones fast loss. In turn, `CCC(=O)N[C@@H]1CCCc2c(-c3ccc4c(c3)COC(=O)N4C)cncc21` [Example 1-A] returned an EC50 in series [1] of 70 nM. The “hsF (human selective factor: ratio of CYP11B1 EC50 to CYP11B2 EC50)” value in series [2] was found to be 144×. For the same molecule, in series [3], the AUC(0-inf) amounted to 20800 ng·h/mL, the AUC(0-t) came out at 20800 ng·h/mL, the Cmax was 3770 ng/mL and the Tmax came to 0.3 h. The molecule further gave a half-life in series [3] of 2.7 h. The MRT inf in series [3] (read-out: MRT0-∞) was 4.7 h. For the same molecule, in series [4] (0.1 mpk P.O.), the “Aldosterone, 0” value was found to be 0.38 ng/mL and the “Aldosterone, 0.5 h” value is on record as 0.33 ng/mL. Further, in series [4] (0.3 mpk P.O.), the “Aldosterone, 0” value amounted to 0.23 ng/mL and the “Aldosterone, 0.5 h” value is recorded as 0.17 ng/mL. Also, in series [4] (1 mpk P.O.), the “Aldosterone, 0” value turned out to be 0.12 ng/mL and the “Aldosterone, 0.5 h” value came out at 0.15 ng/mL. In series [4] (3 mpk P.O.), the “Aldosterone, 0” value was 0.13 ng/mL and the “Aldosterone, 0.5 h” value is given as 0.09 ng/mL. Besides, in series [5] (0.1 mpk P.O.), the “Cortisol, 0” value is reported as 246 ng/mL and the “Cortisol, 1 h” value was 360 ng/mL. In series [5] (0.3 mpk P.O.), the “Cortisol, 0” value was 230 ng/mL and the “Cortisol, 1 h” value was 355 ng/mL. Moreover, in series [5] (1 mpk P.O.), the “Cortisol, 0” value is given as 215 ng/mL and the “Cortisol, 1 h” value is 315 ng/mL. Further, in series [5] (3 mpk P.O.), the “Cortisol, 0” value stood at 225 ng/mL and the “Cortisol, 1 h” value stood at 326 ng/mL.
In the case of `CCC(=O)N[C@@H]1CCCc2c(-c3ccc4c(c3)OCC(=O)N4C)cncc21` [Example 2-A], the “hsF (human selective factor: ratio of CYP11B1 EC50 to CYP11B2 EC50)” value in series [2] worked out at 174×.
In series [1], `CN1C(=O)CCc2cc(-c3cncc4c3CCC[C@H]4NC(=O)CC34CC(C3)C4)ccc21` [Example 37] displayed an EC50 of 35 nM.
Still for that read-out and setting: next, `CCS(=O)(=O)N1CC(Oc2cncc(-c3ccc4c(c3)COC(=O)N4C)c2)C1` [Example 58, 6-(5-((1-(Ethylsulfonyl)azetidin-3-yl)oxy)pyridin-3-yl)-1-methyl-1,4-dihydro-2H-benzo[d][1,3]oxazin-2-one]: 48 nM.
With `CN1C(=O)OCc2cc(-c3cncc(N4CC5(CN(C(=O)c6cnn(C)c6)C5)C4)c3)ccc21` [Example 60, 1-Methyl-6-(5-(6-(1-methyl-1H-pyrazole-4-carbonyl)-2,6-diazaspiro[3.3]heptan-2-yl)pyridin-3-yl)-1,4-dihydro-2H-benzo[d][1,3]oxazin-2-one], in series [2], the “hsF (human selective factor: ratio of CYP11B1 EC50 to CYP11B2 EC50)” value was >1279×.
In the case of `CN1C(=O)OCc2cc(-c3cncc(C4=CCN(S(=O)(=O)C5CC5)CC4)c3)ccc21` [Example 68, 6-(1′-(Cyclopropylsulfonyl)-1′,2′,3′,6′-tetrahydro-[3,4′-bipyridine]-5-yl)-1-methyl-1,4-dihydro-2H-benzo[d][1,3]oxazin-2-one], it took 7 nM to reach a half-maximal effect in series [1] (EC50). For the same molecule, the “hsF (human selective factor: ratio of CYP11B1 EC50 to CYP11B2 EC50)” value in series [2] was determined as 394×.
